From patent US20230256094A1, “CANCER RADIOSENSITIZATION BY IN SITU FORMATION OF GOLD NANOPARTICLES AND/OR GOLD NANOCLUSTERS” (BOARD OF REGENTS, THE UNIVERSITY OF TEXAS SYSTEM, priority 2020, published 2023) come the findings set out here.

The test system of data set [1] is 3T3 mouse fibroblast cells. The data set is described as follows: MTS assay of radiosensitization after X-ray irradiation. The note with it: 0 Gy. The class given is cell-based. The procedure:
Our initial evaluation of radiosensitization via intracellular GNP formation was performed with 3T3 mouse fibroblast cells. […] Radiosensitization with intracellular GNC formation (i.e., delivery of Au^3+) was compared with pre-fabricated albumin-coated GNCs (Albumin-GNC) prepared according to work by Xie^46 and control cells without treatment via MTS assay (FIG. 3B).
3T3 cells were first incubated with either 1 mM of sodium chloroaurate or albumin-GNCs (0.1 mM Au^0)in cell culture media for 10 hours. Then, the cells including the nontreated control were irradiated with X-rays at dosages of 0, 4 and 6 Gy in the X-ray X-RAD 225 CX irradiator system (Precision).
In our future studies we will use a standard clonogenic survival assay for quantitation of the radiosensitization effect.
(Tetrazolium assays rely on reduction of a dye to a coloured formazan, in cell work by metabolically active cells.)

Data set [2] deals with PANC1 pancreatic cancer. The data set is described as follows: gamma H2AX foci quantification of double stranded DNA breaks. The format is cell-based, human. The procedure:
FIG. 21 reports on a mechanistic study of radiosensitization quantifying gamma H2AX foci through fluorescent antibody staining measured at 0, 4, and 24 hours, resulting from 24 hour 0.20 mM Au^3+ treatments (lower three) compared against non-treated (upper three) combined with either 0 Gy or 8 Gy x-ray irradiation. Treatments are in full cell media to PANC1 pancreatic cancer.
2.5. Evaluate radiosensitization efficacy and radiosensitization mechanisms for in situ synthetized GNCs. Based on the studies described in Sections 2.3-2.4, we selected the following conditions for radiosensitization studies in cell culture: 24 hr media conditioning by cells, 10% FBS (v/v) within, and 0.20 mM Au^3+ for 24 hrs.
Further, we characterized the mechanisms of radiosensitization through (i) quantification of double stranded DNA breaks via y-H2AX Foci (FIG. 21), (ii) mitochondrial polarization via JC-1 assay (FIG. 22), (iii) NADP total (FIG. 23) and NADP:NADPH ratio (FIG. 24) via NADP(H) assay, and (iv) peroxidation production via TBARS assay (FIG. 25).

Data set [3] has as its system pancreatic non-cancerous cells (MS1). The data set is described as follows: Clonogenic assay after X-ray irradiation. The class given is cell-based. The note with it: 0.1 mM, 24 hours, X-rays 0 to 8 Gy. The procedure: (§1) Radiosensitization due to intracellular GNC formation (i.e., delivery of Au^3+) was compared between cancerous and non-cancerous cells using a standard clonal assay. For radiosensitization, cells were incubated with 0.1 mM of buffered chloroauric acid in cell culture media for 24 hours. Then, the cells were lifted and plated in 30 mm culture dishes at optimized cell densities for observation of colony formation following irradiation with X-rays at dosages ranging from 0 to 8 Gy (XRAD SmART). […] The radiosensitization results correlated well with the fluorescence images showing greater production of GNCs by cancerous cells (FIG. 6A-6B). For LTPA pancreatic cancer cells the surviving fraction values decreased by a factor of 2.3x and 3.5x for radiation of 4 Gy and 6 Gy, respectively, in cells treated with gold atoms compared to untreated control (FIG. 6B). This relative decrease in surviving fraction is similar or better than previously reported values observed in cells treated with pre-synthetized GNPs. We believe that the observed improvement in radiation efficiency in killing cancer cells might be associated with a strong nuclear localization of in situ synthetized GNCs.

Data set [4] deals with LTPA pancreatic cancer cells. The data set is described as follows: Clonogenic assay after X-ray irradiation. To be noted: 0.1 mM, 24 hours; for radiosensitization effect as compared to untreated control: cancer cells, X-rays 0 to 8 Gy. The format is cell-based. Here is the method: as §1
Data set [5] relates to PANC1 pancreatic cancer. The data set is described as follows: MTT assay of cell viability after x-ray irradiation. The class given is cell-based, human. The note with it: 24 hours after irradiation, all radiation dosages greater than 0 Gy, 0.20 mM. The procedure: FIG. 26 presents evidence of radiosensitization, quantifying the cell viability resulting from X-ray damage through MTT assay measured 24 and 96 hours after x-ray irradiation, resulting from 24 hour, 0.20 mM Au^3+ treatments (right bar in each dosage pair) compared against non-treated (left bar in each dosage pair) combined with either 0 Gy or 8 Gy x-ray irradiation. Treatments are in full cell media to PANC1 pancreatic cancer.

The test system of data set [6] is 8505C thyroid cancer and Nthy-Ori-3-1 normal thyroid cells. The data set is described as follows: MTT assay of cell viability, thyroid cells. The format is cell-based. To be noted: 24 hour treatment, all concentrations.
The subject of the next data set is thyroid cancer. The data set is described as follows: gamma H2AX foci after x-ray irradiation, thyroid cancer. The note with it: 24 hours after x-ray irradiation, 0 or 8 Gy, 0.20 mM. The format is cell-based. From the text: Treatments are in full cell media.
Where [7] appears, read: listed as buffered chloroauric acid.

For `[Au+3].[Cl-].[Cl-].[Cl-].[Cl-].[H+]` [Au^3+, chloroauric acid], the “cell viability / cytotoxicity, treated vs untreated cells” value in data set [1] is given as “no difference in cell viability”; in data set [1] (listed as chloroauric acid), “not cytotoxic”. For the same compound, the “fewer DNA breaks than in untreated control” value in the data set on PANC1 pancreatic cancer [2] (4 hrs after 8 Gy irradiation, 0.20 mM, 24 hrs) amounted to 29%. The “repair of DNA breaks” value with PANC1 pancreatic cancer [2] (24 hr post-irradiation, 8 Gy) is reported as “no significant repair”. Moreover, the “radiosensitization in non-cancerous cells” value is on record as “no radiosensitization” in data set [3] and “no significant radiosensitization” in data set [3] (setting [7]). Further, the “factor of decrease of surviving fraction compared to untreated control” value was 2.3 x in data set [4] (4 Gy) and 3.5 x in data set [4] (6 Gy). The “radiosensitization effect as compared to untreated control” value in data set [4] is “significant radiosensitization effect”; in data set [4] (setting [7]), “significantly greater radiosensitization effect”. For the same compound, in the data set on PANC1 pancreatic cancer [5], the “cell viability vs untreated controls (MTT)” value is recorded as “significantly lower cell viability”. The “viability of cancer cells compared with normal cells (MTT)” value in data set [6] is “significantly lower viability of cancer cells than normal cells”. In addition, the “radiosensitization via induced double stranded DNA breaks (gamma H2AX foci)” value in the data set on thyroid cancer is on record as “evidence of radiosensitization via induced double stranded DNA breaks”.
